According to the supplement of paper PMC10307832:

Columns and labels:
Assay in all cases: relative viability (nuclei count vs DMSO), 5 days (fraction); higher = more cells survive
Carfilzomib + Bortezomib = compound: CC(C)C[C@H](NC(=O)[C@H](CCc1ccccc1)NC(=O)CN1CCOCC1)C(=O)N[C@@H](Cc1ccccc1)C(=O)N[C@@H](CC(C)C)C(=O)[C@@]1(C)CO1 [Carfilzomib] + CC(C)C[C@H](NC(=O)[C@H](Cc1ccccc1)NC(=O)c1cnccn1)B(O)O [Bortezomib] (partner 0.002 µM)
Summary of the method: (§1)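 Relative viability was taken as the ratio of nuclei in treated wells to nuclei in vehicle wells. Lung cancer cell lines in 1536-well plates received compounds by pin tool one day after seeding, either one drug alone or a fixed anchor-drug dose plus five library-drug doses (not always all listed) in √10 steps. Nuclei were counted on 4× images after 5 days of treatment, and values are medians of duplicate plates.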

Carfilzomib + Tozasertib = compound: CC(C)C[C@H](NC(=O)[C@H](CCc1ccccc1)NC(=O)CN1CCOCC1)C(=O)N[C@@H](Cc1ccccc1)C(=O)N[C@@H](CC(C)C)C(=O)[C@@]1(C)CO1 [Carfilzomib] + Cc1cc(Nc2cc(N3CCN(C)CC3)nc(Sc3ccc(NC(=O)C4CC4)cc3)n2)n[nH]1 [Tozasertib] (partner 0.1 µM)
Summary of the method: as §1

Crizotinib + Tozasertib = compound: C[C@@H](Oc1cc(-c2cnn(C3CCNCC3)c2)cnc1N)c1c(Cl)ccc(F)c1Cl [Crizotinib] + Cc1cc(Nc2cc(N3CCN(C)CC3)nc(Sc3ccc(NC(=O)C4CC4)cc3)n2)n[nH]1 [Tozasertib] (partner 0.1 µM)
Summary of the method: as §1

Olaparib + Bortezomib = compound: O=C(c1cc(Cc2n[nH]c(=O)c3ccccc23)ccc1F)N1CCN(C(=O)C2CC2)CC1 [Olaparib] + CC(C)C[C@H](NC(=O)[C@H](Cc1ccccc1)NC(=O)c1cnccn1)B(O)O [Bortezomib] (partner 0.002 µM)
Summary of the method: as §1

In the case of HCC-366, the relative viability (Carfilzomib + Bortezomib; first compound 0.001 µM) was 0.891, the relative viability (Carfilzomib + Bortezomib; first compound 0.003162 µM) was 0.966 and the relative viability (Carfilzomib + Bortezomib; first compound 0.01 µM) was 1.07. For the same cell line, the relative viability (Carfilzomib + Bortezomib; first compound 0.03162 µM) was 0.196, the relative viability (Carfilzomib + Bortezomib; first compound 0.1 µM) was 0.0175 and the relative viability (Carfilzomib + Tozasertib; first compound 0.001 µM) was 0.0847. It also gave a relative viability (Carfilzomib + Tozasertib; first compound 0.003162 µM) of 0.132, a relative viability (Carfilzomib + Tozasertib; first compound 0.01 µM) of 0.185 and a relative viability (Carfilzomib + Tozasertib; first compound 0.03162 µM) of 0.106. For the same cell line, the relative viability (Carfilzomib + Tozasertib; first compound 0.1 µM) was 0.0351, the relative viability (Crizotinib + Tozasertib; first compound 0.01 µM) was 0.143 and the relative viability (Crizotinib + Tozasertib; first compound 0.03162 µM) was 0.0981. For the same cell line, the relative viability (Crizotinib + Tozasertib; first compound 0.1 µM) was 0.106, the relative viability (Crizotinib + Tozasertib; first compound 1 µM) was 0.136 and the relative viability (Olaparib + Bortezomib; first compound 0.08 µM) was 1.06. For the same cell line, the relative viability (Olaparib + Bortezomib; first compound 0.253 µM) was 0.959, the relative viability (Olaparib + Bortezomib; first compound 2.53 µM) was 0.913 and the relative viability (Olaparib + Bortezomib; first compound 8 µM) was 0.384.
With HCC-827 the relative viability (Carfilzomib + Bortezomib; first compound 0.001 µM) was 1.01, the relative viability (Carfilzomib + Bortezomib; first compound 0.003162 µM) was 1.01 and the relative viability (Carfilzomib + Bortezomib; first compound 0.01 µM) was 1.06. The relative viability (Carfilzomib + Bortezomib; first compound 0.03162 µM) was 0.677, the relative viability (Carfilzomib + Bortezomib; first compound 0.1 µM) was 0.422 and the relative viability (Carfilzomib + Tozasertib; first compound 0.001 µM) was 0.366. The relative viability (Carfilzomib + Tozasertib; first compound 0.003162 µM) was 0.397, the relative viability (Carfilzomib + Tozasertib; first compound 0.01 µM) was 0.47 and the relative viability (Carfilzomib + Tozasertib; first compound 0.03162 µM) was 0.411. It also gave a relative viability (Carfilzomib + Tozasertib; first compound 0.1 µM) of 0.265, a relative viability (Crizotinib + Tozasertib; first compound 0.01 µM) of 0.427 and a relative viability (Crizotinib + Tozasertib; first compound 0.03162 µM) of 0.438. The relative viability (Crizotinib + Tozasertib; first compound 0.1 µM) was 0.414, the relative viability (Crizotinib + Tozasertib; first compound 0.3162 µM) was 0.413 and the relative viability (Crizotinib + Tozasertib; first compound 1 µM) was 0.415. The relative viability (Olaparib + Bortezomib; first compound 0.08 µM) was 1.01, the relative viability (Olaparib + Bortezomib; first compound 0.253 µM) was 0.943 and the relative viability (Olaparib + Bortezomib; first compound 2.53 µM) was 1.03. It also gave a relative viability (Olaparib + Bortezomib; first compound 8 µM) of 0.95.
HOP-62 gave a relative viability (Carfilzomib + Bortezomib; first compound 0.001 µM) of 0.531, a relative viability (Carfilzomib + Bortezomib; first compound 0.003162 µM) of 0.475 and a relative viability (Carfilzomib + Bortezomib; first compound 0.01 µM) of 0.425. For the same cell line, the relative viability (Carfilzomib + Bortezomib; first compound 0.03162 µM) was 0.0851, the relative viability (Carfilzomib + Bortezomib; first compound 0.1 µM) was 0.0746 and the relative viability (Carfilzomib + Tozasertib; first compound 0.001 µM) was 0.37. It also gave a relative viability (Carfilzomib + Tozasertib; first compound 0.003162 µM) of 0.405, a relative viability (Carfilzomib + Tozasertib; first compound 0.01 µM) of 0.385 and a relative viability (Carfilzomib + Tozasertib; first compound 0.03162 µM) of 0.19. For the same cell line, the relative viability (Carfilzomib + Tozasertib; first compound 0.1 µM) was 0.0741, the relative viability (Crizotinib + Tozasertib; first compound 0.01 µM) was 0.396 and the relative viability (Crizotinib + Tozasertib; first compound 0.03162 µM) was 0.33. The relative viability (Crizotinib + Tozasertib; first compound 0.1 µM) was 0.354, the relative viability (Crizotinib + Tozasertib; first compound 0.3162 µM) was 0.322 and the relative viability (Crizotinib + Tozasertib; first compound 1 µM) was 0.383. The relative viability (Olaparib + Bortezomib; first compound 0.08 µM) was 1.21, the relative viability (Olaparib + Bortezomib; first compound 0.253 µM) was 0.55 and the relative viability (Olaparib + Bortezomib; first compound 2.53 µM) was 0.556. The relative viability (Olaparib + Bortezomib; first compound 8 µM) was 0.211.
IA-LM showed a relative viability (Carfilzomib + Bortezomib; first compound 0.001 µM) of 0.843, a relative viability (Carfilzomib + Bortezomib; first compound 0.003162 µM) of 0.673 and a relative viability (Carfilzomib + Bortezomib; first compound 0.01 µM) of 0.584. It also gave a relative viability (Carfilzomib + Bortezomib; first compound 0.03162 µM) of 0.0124, a relative viability (Carfilzomib + Bortezomib; first compound 0.1 µM) of 0.0142 and a relative viability (Olaparib + Bortezomib; first compound 0.08 µM) of 0.743. It also gave a relative viability (Olaparib + Bortezomib; first compound 0.253 µM) of 0.739, a relative viability (Olaparib + Bortezomib; first compound 2.53 µM) of 0.745 and a relative viability (Olaparib + Bortezomib; first compound 8 µM) of 0.659.
LC-2-ad showed a relative viability (Carfilzomib + Bortezomib; first compound 0.001 µM) of 0.947, a relative viability (Carfilzomib + Bortezomib; first compound 0.003162 µM) of 1.08 and a relative viability (Carfilzomib + Bortezomib; first compound 0.01 µM) of 0.482. For the same cell line, the relative viability (Carfilzomib + Bortezomib; first compound 0.03162 µM) was 0.132, the relative viability (Carfilzomib + Bortezomib; first compound 0.1 µM) was 0.0828 and the relative viability (Carfilzomib + Tozasertib; first compound 0.001 µM) was 0.466. It also gave a relative viability (Carfilzomib + Tozasertib; first compound 0.003162 µM) of 0.453, a relative viability (Carfilzomib + Tozasertib; first compound 0.01 µM) of 0.498 and a relative viability (Carfilzomib + Tozasertib; first compound 0.03162 µM) of 0.279. For the same cell line, the relative viability (Carfilzomib + Tozasertib; first compound 0.1 µM) was 0.24, the relative viability (Crizotinib + Tozasertib; first compound 0.01 µM) was 0.425 and the relative viability (Crizotinib + Tozasertib; first compound 0.03162 µM) was 0.454. The relative viability (Crizotinib + Tozasertib; first compound 0.1 µM) was 0.431, the relative viability (Crizotinib + Tozasertib; first compound 0.3162 µM) was 0.423 and the relative viability (Crizotinib + Tozasertib; first compound 1 µM) was 0.47. For the same cell line, the relative viability (Olaparib + Bortezomib; first compound 0.08 µM) was 1.15, the relative viability (Olaparib + Bortezomib; first compound 0.253 µM) was 0.922 and the relative viability (Olaparib + Bortezomib; first compound 2.53 µM) was 0.908. The relative viability (Olaparib + Bortezomib; first compound 8 µM) was 0.556.
LCLC-97TM1 was tested, and the relative viability (Carfilzomib + Bortezomib; first compound 0.001 µM) was 0.292, the relative viability (Carfilzomib + Bortezomib; first compound 0.003162 µM) was 0.714 and the relative viability (Carfilzomib + Bortezomib; first compound 0.01 µM) was 0.268. The relative viability (Carfilzomib + Bortezomib; first compound 0.03162 µM) was 0.0483, the relative viability (Carfilzomib + Bortezomib; first compound 0.1 µM) was 0.0702 and the relative viability (Carfilzomib + Tozasertib; first compound 0.001 µM) was 0.25. It also gave a relative viability (Carfilzomib + Tozasertib; first compound 0.003162 µM) of 0.263, a relative viability (Carfilzomib + Tozasertib; first compound 0.01 µM) of 0.215 and a relative viability (Carfilzomib + Tozasertib; first compound 0.03162 µM) of 0.205. The relative viability (Carfilzomib + Tozasertib; first compound 0.1 µM) was 0.107, the relative viability (Crizotinib + Tozasertib; first compound 0.01 µM) was 0.19 and the relative viability (Crizotinib + Tozasertib; first compound 0.03162 µM) was 0.234. The relative viability (Crizotinib + Tozasertib; first compound 0.1 µM) was 0.21, the relative viability (Crizotinib + Tozasertib; first compound 0.3162 µM) was 0.201 and the relative viability (Crizotinib + Tozasertib; first compound 1 µM) was 0.224. It also gave a relative viability (Olaparib + Bortezomib; first compound 0.08 µM) of 0.729, a relative viability (Olaparib + Bortezomib; first compound 0.253 µM) of 0.475 and a relative viability (Olaparib + Bortezomib; first compound 2.53 µM) of 1.03. For the same cell line, the relative viability (Olaparib + Bortezomib; first compound 8 µM) was 0.276.
For LCLC-103H, the relative viability (Carfilzomib + Bortezomib; first compound 0.001 µM) was 1, the relative viability (Carfilzomib + Bortezomib; first compound 0.003162 µM) was 1.14 and the relative viability (Carfilzomib + Bortezomib; first compound 0.01 µM) was 0.678. The relative viability (Carfilzomib + Bortezomib; first compound 0.03162 µM) was 0.294, the relative viability (Carfilzomib + Bortezomib; first compound 0.1 µM) was 0.27 and the relative viability (Carfilzomib + Tozasertib; first compound 0.001 µM) was 0.467. For the same cell line, the relative viability (Carfilzomib + Tozasertib; first compound 0.003162 µM) was 0.511, the relative viability (Carfilzomib + Tozasertib; first compound 0.01 µM) was 0.408 and the relative viability (Carfilzomib + Tozasertib; first compound 0.03162 µM) was 0.518. The relative viability (Carfilzomib + Tozasertib; first compound 0.1 µM) was 0.169, the relative viability (Crizotinib + Tozasertib; first compound 0.01 µM) was 0.37 and the relative viability (Crizotinib + Tozasertib; first compound 0.03162 µM) was 0.39. For the same cell line, the relative viability (Crizotinib + Tozasertib; first compound 0.1 µM) was 0.488, the relative viability (Crizotinib + Tozasertib; first compound 0.3162 µM) was 0.451 and the relative viability (Crizotinib + Tozasertib; first compound 1 µM) was 0.578. The relative viability (Olaparib + Bortezomib; first compound 0.08 µM) was 1.04, the relative viability (Olaparib + Bortezomib; first compound 0.253 µM) was 1.07 and the relative viability (Olaparib + Bortezomib; first compound 2.53 µM) was 1.05. For the same cell line, the relative viability (Olaparib + Bortezomib; first compound 8 µM) was 0.948.
LK-2 was tested, and the relative viability (Carfilzomib + Tozasertib; first compound 0.001 µM) was 0.181, the relative viability (Carfilzomib + Tozasertib; first compound 0.003162 µM) was 0.172 and the relative viability (Carfilzomib + Tozasertib; first compound 0.01 µM) was 0.159. The relative viability (Carfilzomib + Tozasertib; first compound 0.03162 µM) was 0.179, the relative viability (Carfilzomib + Tozasertib; first compound 0.1 µM) was 0.196 and the relative viability (Crizotinib + Tozasertib; first compound 0.01 µM) was 0.173. The relative viability (Crizotinib + Tozasertib; first compound 0.03162 µM) was 0.177, the relative viability (Crizotinib + Tozasertib; first compound 0.1 µM) was 0.197 and the relative viability (Crizotinib + Tozasertib; first compound 1 µM) was 0.19.
Work on LOU-NH91 yielded a relative viability (Carfilzomib + Bortezomib; first compound 0.001 µM) of 0.438, a relative viability (Carfilzomib + Bortezomib; first compound 0.003162 µM) of 0.49 and a relative viability (Carfilzomib + Bortezomib; first compound 0.01 µM) of 0.362. It also gave a relative viability (Carfilzomib + Bortezomib; first compound 0.03162 µM) of 0.26, a relative viability (Carfilzomib + Bortezomib; first compound 0.1 µM) of 0.263 and a relative viability (Carfilzomib + Tozasertib; first compound 0.001 µM) of 0.742. The relative viability (Carfilzomib + Tozasertib; first compound 0.003162 µM) was 0.801, the relative viability (Carfilzomib + Tozasertib; first compound 0.01 µM) was 0.635 and the relative viability (Carfilzomib + Tozasertib; first compound 0.03162 µM) was 0.289. The relative viability (Carfilzomib + Tozasertib; first compound 0.1 µM) was 0.246, the relative viability (Crizotinib + Tozasertib; first compound 0.01 µM) was 0.674 and the relative viability (Crizotinib + Tozasertib; first compound 0.03162 µM) was 0.69. It also gave a relative viability (Crizotinib + Tozasertib; first compound 0.1 µM) of 0.751, a relative viability (Crizotinib + Tozasertib; first compound 0.3162 µM) of 0.606 and a relative viability (Crizotinib + Tozasertib; first compound 1 µM) of 0.677. It also gave a relative viability (Olaparib + Bortezomib; first compound 0.08 µM) of 0.502, a relative viability (Olaparib + Bortezomib; first compound 0.253 µM) of 0.462 and a relative viability (Olaparib + Bortezomib; first compound 2.53 µM) of 0.512. It also gave a relative viability (Olaparib + Bortezomib; first compound 8 µM) of 0.394.
